Tests used:
[1] = serum levels of ivermectin after administration to the nasal pharynx; assay type: in vivo, beef steers
Description: To study the dose/response efficacy of nasal administration of macrocyclic lactone parasicides, three (3) beef steers of mixed breeding were used to evaluate three treatments. These three treatments were:
Treatments were applied and cattle were bled via jugular venipuncture at 0, 6, 24, 48, and 96 hours post-dosing.
Table I recites serum levels of ivermectin, in nanograms per milliliter, for the three treatments recited above at 0, 6, 24, 48, and 96 hours post dosing by nasal administration. Each treatment included delivering a 1 ml mixture comprising ivermectin and propylene glycol to the nasal pharnyx of the animal.

[2] = topical, 500 micrograms per kilogram body weight; cited from earlier work
[3] = injection, about 200 micrograms per kilogram of bodyweight; cited from earlier work
most parasites = conditions: cattle; cited from earlier work
Haemonchus contortus = conditions: cited from earlier work
[4] = system: Trichostrongylus colubriformis; conditions: cited from earlier work
[5] = autoclave temperatures; cited from earlier work

ivermectin
serum level of ivermectin ([1]; Treatment 1, nasal, about 248 μg/kg in propylene glycol, 0 Hours): 0.19 nanograms per milliliter
serum level of ivermectin ([1]; Treatment 1, nasal, about 248 μg/kg in propylene glycol, 6 Hours): 5.87 nanograms per milliliter
serum level of ivermectin ([1]; Treatment 1, nasal, about 248 μg/kg in propylene glycol, 24 Hours): 15.24 nanograms per milliliter
serum level of ivermectin ([1]; Treatment 1, nasal, about 248 μg/kg in propylene glycol, 48 Hours): 11.22 nanograms per milliliter
serum level of ivermectin ([1]; Treatment 1, nasal, about 248 μg/kg in propylene glycol, 96 Hours): 7.58 nanograms per milliliter
maximum serum level CMAX(1) ([1]; Treatment 1, nasal, about 248 micrograms per kilogram body weight): about 15 nanograms of ivermectin per ml of blood
CMAX(1) ([1]; Treatment 1, nasal, about 248 micrograms per kilogram, as restated): greater than 15 ng/ml
serum level of ivermectin ([1]; Treatment 2, nasal, about 409 μg/kg in propylene glycol, 0 Hours): 0.21 nanograms per milliliter
serum level of ivermectin ([1]; Treatment 2, nasal, about 409 μg/kg in propylene glycol, 6 Hours): 6.58 nanograms per milliliter
serum level of ivermectin ([1]; Treatment 2, nasal, about 409 μg/kg in propylene glycol, 24 Hours): 24.48 nanograms per milliliter
serum level of ivermectin ([1]; Treatment 2, nasal, about 409 μg/kg in propylene glycol, 48 Hours): 19.71 nanograms per milliliter
serum level of ivermectin ([1]; Treatment 2, nasal, about 409 μg/kg in propylene glycol, 96 Hours): 13.88 nanograms per milliliter
maximum serum level CMAX(2) ([1]; Treatment 2, nasal, about 409 micrograms per kilogram body weight): about 24 nanograms of ivermectin per ml of blood
serum level of ivermectin ([1]; Treatment 3, nasal, about 872 μg/kg in propylene glycol, 0 Hours): 0.22 nanograms per milliliter
serum level of ivermectin ([1]; Treatment 3, nasal, about 872 μg/kg in propylene glycol, 6 Hours): 22.51 nanograms per milliliter
serum level of ivermectin ([1]; Treatment 3, nasal, about 872 μg/kg in propylene glycol, 24 Hours): 40.79 nanograms per milliliter
serum level of ivermectin ([1]; Treatment 3, nasal, about 872 μg/kg in propylene glycol, 48 Hours): 30.53 nanograms per milliliter
serum level of ivermectin ([1]; Treatment 3, nasal, about 872 μg/kg in propylene glycol, 96 Hours): 19.38 nanograms per milliliter
maximum serum level CMAX(3) ([1]; Treatment 3, nasal, about 872 micrograms per kilogram body weight): about 41 nanograms of ivermectin per ml of blood
time for which serum levels of ivermectin exceed 2 ng ml^−1 ([1]; all three treatments, nasal): > 96 h
CMAX [2]: 12.2 ng/mL
CMAX serum level [3]: about 30 ng/ml
serum level sufficient to protect the animal against reinfestation of most parasites (most parasites): > 2 ng/mL
inhibition of pharyngeal pumping compared with motility (Haemonchus contortus): more potent inhibition of pharyngeal pumping than motility
inhibition of pharyngeal pumping compared with motility [4]: more potent inhibition of pharyngeal pumping than motility
thermal stability [5]: subject to decomposition at autoclave temperatures
